Experimental data taken from patent EP0482939A1, “Isoquinolinone derivative” (ONO PHARMACEUTICAL CO., LTD., priority 1990, dated 1992).

Tests used:
[1] = target: T1, 5-HT3 receptor (Rattus norvegicus, UniProt P35563); test: Suppression of 5-HT-induced reflex bradycardia in urethane-anesthetised rats (antagonistic activity against 5-HT3 receptor in vivo); set-up: species or system Male Wister rat; conditions: intravenous administration, suppression of reflex bradycardia generated by i.v. 5-HT, read-out: IC50 i.v.
T1 construct: from tissue
T1 sequence (P35563 24-483): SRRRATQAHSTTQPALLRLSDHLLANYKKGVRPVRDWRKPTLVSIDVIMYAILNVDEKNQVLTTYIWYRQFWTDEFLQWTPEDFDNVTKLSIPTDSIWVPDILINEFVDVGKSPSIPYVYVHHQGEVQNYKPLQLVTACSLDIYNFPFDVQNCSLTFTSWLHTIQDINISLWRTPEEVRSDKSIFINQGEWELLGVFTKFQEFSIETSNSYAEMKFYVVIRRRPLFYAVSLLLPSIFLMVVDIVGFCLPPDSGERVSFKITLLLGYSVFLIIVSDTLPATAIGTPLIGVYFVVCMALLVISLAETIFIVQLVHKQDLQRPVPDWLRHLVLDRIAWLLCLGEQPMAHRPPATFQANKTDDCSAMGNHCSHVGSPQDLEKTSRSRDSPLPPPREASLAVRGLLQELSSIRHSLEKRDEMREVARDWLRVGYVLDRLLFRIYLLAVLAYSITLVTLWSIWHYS
Experimental: Male Wister rat was urethane-anesthetised and fixed. Cannulas were inserted in the carotoid artery and in the thigh vein as used for recording of blood pressure and heart beat, and for the administration of the test compounds, respectively.
Several doses of a compound of the present invention were administered from the vein. 5-HT was administered rapidly to the vein, 2 mins. after insertion of cannulas. The suppression effect of the compounds were confirmed by the measurement of the reflex bradycardia generated (Nature 316, 126 (1985)).

[2] = Acute toxicity by intravenous administration; conditions: mouse, in vivo; intravenous administration in mice
Experimental: Tests confirmed that the toxicity of the compounds of the present invention is very low. Therefore, the compounds of the present invention may be considered to be sufficiently safe and suitable for pharmaceutical use.
For example, the value of acute toxicity (LD50) of the compound prepared as in Example 1 was 50 mg/kg animal body weight by intravenous administration in mice.

Row | SMILES | ED50 [1] | LD50 [2]
1 | CNc1cc2ccn(Cc3nc[nH]c3C)c(=O)c2cc1Cl.Cl.Cl [1(d), 6-methylamino-7-chloro-2-(5-methyl-imidazol-4-ylmethyl)-1,2-dihydro-isoquinolin-1-one dihydrochloride] | 0.49 mg/kg | –
2 | CNc1cc(Cl)cc2c(=O)n(Cc3nc[nH]c3C)ccc12.Cl.Cl [1(e), 5-methylamino-7-chloro-2-(5-methyl-imidazol-4-ylmethyl)-1,2-dihydro-isoquinolin-1-one dihydrochloride] | 1.44 mg/kg | –
3 | CC(=O)Nc1cc2ccn(Cc3nc[nH]c3C)c(=O)c2cc1Cl [Example 1(a)] | 0.99 mg/kg | –
4 | Cc1[nH]cnc1Cn1ccc2cc(N)c(Cl)cc2c1=O.Cl.Cl [Example 1, 6-amino-7-chloro-2-(5-methylimidazol-4-ylmethyl)-1,2-dihydroisoquinolin-1-one dihydrochloride] | 0.39 mg/kg | 50 mg/kg
